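Dose response: 5 concentrations. Exposure: 48 h. Format: 96-well plates. Endpoint: linear interpolation; highest concentration if not reached. At the TGI there is no net growth.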
Key:
Assay in all cases: NCI tumour cell line growth inhibition, 48 h
T-47D breast = system: T-47D breast
786-0 renal = system: 786-0 renal
NCI-H226 lung = system: NCI-H226 lung
OVCAR-3 ovarian = system: OVCAR-3 ovarian
HCT-116 colon = system: HCT-116 colon
HL-60(TB) leukemia = system: HL-60(TB) leukemia
PC-3 prostate = system: PC-3 prostate
MOLT-4 leukemia = system: MOLT-4 leukemia
SK-OV-3 ovarian = system: SK-OV-3 ovarian
OVCAR-8 ovarian = system: OVCAR-8 ovarian
SNB-19 CNS = system: SNB-19 CNS
SK-MEL-2 melanoma = system: SK-MEL-2 melanoma
SN12K1 renal = system: SN12K1 renal
P388 leukemia = system: P388 leukemia
SK-MEL-28 melanoma = system: SK-MEL-28 melanoma
MDA-N = system: MDA-N
SN12C renal = system: SN12C renal
XF 498 CNS = system: XF 498 CNS
SF-539 CNS = system: SF-539 CNS
CAKI-1 renal = system: CAKI-1 renal
EKVX NSCLC = system: EKVX NSCLC
A549 NSCLC = system: A549 NSCLC
TK-10 renal = system: TK-10 renal
CCRF-CEM leukemia = system: CCRF-CEM leukemia
HOP-62 NSCLC = system: HOP-62 NSCLC
A498 renal = system: A498 renal
NCI-H522 lung = system: NCI-H522 lung
P388/ADR leukemia = system: P388/ADR leukemia
SF-295 CNS = system: SF-295 CNS
SNB-78 CNS = system: SNB-78 CNS
IGROV1 ovarian = system: IGROV1 ovarian
DU-145 prostate = system: DU-145 prostate
SF-268 CNS = system: SF-268 CNS
OVCAR-4 ovarian = system: OVCAR-4 ovarian
NCI-H23 lung = system: NCI-H23 lung
LOX IMVI melanoma = system: LOX IMVI melanoma
M14 melanoma = system: M14 melanoma
KM20L2 colon = system: KM20L2 colon
COLO 205 colon = system: COLO 205 colon
K-562 leukemia = system: K-562 leukemia
U251 CNS = system: U251 CNS
NCI/ADR-RES ovarian = system: NCI/ADR-RES ovarian
M19-MEL melanoma = system: M19-MEL melanoma
BT-549 breast = system: BT-549 breast
DLD-1 colon = system: DLD-1 colon
MCF7 breast = system: MCF7 breast
ACHN renal = system: ACHN renal
SK-MEL-5 melanoma = system: SK-MEL-5 melanoma
UO-31 renal = system: UO-31 renal
RXF 393 renal = system: RXF 393 renal
SW-620 colon = system: SW-620 colon
NCI-H460 lung = system: NCI-H460 lung
SNB-75 CNS = system: SNB-75 CNS
MDA-MB-231 breast = system: MDA-MB-231 breast
UACC-257 melanoma = system: UACC-257 melanoma
HT29 colon = system: HT29 colon
DMS 273 small cell lung = system: DMS 273 small cell lung
HCT-15 colon = system: HCT-15 colon
SR leukemia = system: SR leukemia
DMS 114 small cell lung = system: DMS 114 small cell lung
HCC-2998 colon = system: HCC-2998 colon
MALME-3M melanoma = system: MALME-3M melanoma
HOP-18 NSCLC = system: HOP-18 NSCLC
UACC-62 melanoma = system: UACC-62 melanoma
RPMI-8226 leukemia = system: RPMI-8226 leukemia
HOP-92 NSCLC = system: HOP-92 NSCLC
OVCAR-5 ovarian = system: OVCAR-5 ovarian
KM12 colon = system: KM12 colon

C=C1[C@@H](C)[C@H]2[C@H](Cc3ccccc3)NC(=O)[C@]23OC(=O)/C=C/[C@H](O)CCC[C@@H](C)C/C=C/[C@H]3[C@@H]1O
TGI (T-47D breast): > 100 µM | TGI (786-0 renal): > 100 µM | TGI (NCI-H226 lung): 23.4 µM | TGI (OVCAR-3 ovarian): 91.4 µM | TGI (HCT-116 colon): > 100 µM | TGI (HL-60(TB) leukemia): 90 µM | TGI (PC-3 prostate): > 100 µM | TGI (MOLT-4 leukemia): 72.3 µM | TGI (SK-OV-3 ovarian): > 100 µM | TGI (OVCAR-8 ovarian): 66.4 µM | TGI (SNB-19 CNS): 64.1 µM | TGI (SK-MEL-2 melanoma): 89.1 µM | TGI (SN12K1 renal): 41.1 µM | TGI (P388 leukemia): > 87.1 µM | TGI (SK-MEL-28 melanoma): > 100 µM | TGI (MDA-N): > 100 µM | TGI (SN12C renal): > 100 µM | TGI (XF 498 CNS): 8.97 µM | TGI (SF-539 CNS): 43.8 µM | TGI (CAKI-1 renal): 4.51 µM | TGI (EKVX NSCLC): > 100 µM | TGI (A549 NSCLC): > 97 µM | TGI (TK-10 renal): 47 µM | TGI (CCRF-CEM leukemia): 57.4 µM | TGI (HOP-62 NSCLC): 15 µM | TGI (A498 renal): 16.5 µM | TGI (NCI-H522 lung): > 92.2 µM | TGI (P388/ADR leukemia): 73.4 µM | TGI (SF-295 CNS): 53.5 µM | TGI (SNB-78 CNS): 15.2 µM | TGI (IGROV1 ovarian): 78.9 µM | TGI (DU-145 prostate): > 100 µM | TGI (SF-268 CNS): 73.6 µM | TGI (OVCAR-4 ovarian): > 100 µM | TGI (NCI-H23 lung): 89.7 µM | TGI (LOX IMVI melanoma): 39.6 µM | TGI (M14 melanoma): > 100 µM | TGI (KM20L2 colon): > 100 µM | TGI (COLO 205 colon): > 100 µM | TGI (K-562 leukemia): > 100 µM | TGI (U251 CNS): 57.8 µM | TGI (NCI/ADR-RES ovarian): 91.1 µM | TGI (M19-MEL melanoma): > 100 µM | TGI (BT-549 breast): > 64.3 µM | TGI (DLD-1 colon): > 100 µM | TGI (MCF7 breast): > 100 µM | TGI (ACHN renal): > 57.4 µM | TGI (SK-MEL-5 melanoma): 63.1 µM | TGI (UO-31 renal): 4.12 µM | TGI (RXF 393 renal): 27.9 µM | TGI (SW-620 colon): > 100 µM | TGI (NCI-H460 lung): 57.8 µM | TGI (SNB-75 CNS): 1.3 µM | TGI (MDA-MB-231 breast): > 100 µM | TGI (UACC-257 melanoma): 59.9 µM | TGI (HT29 colon): > 100 µM | TGI (DMS 273 small cell lung): > 97 µM | TGI (HCT-15 colon): 93.2 µM | TGI (SR leukemia): > 100 µM | TGI (DMS 114 small cell lung): > 100 µM | TGI (HCC-2998 colon): > 100 µM | TGI (MALME-3M melanoma): > 89 µM | TGI (HOP-18 NSCLC): 3.03 µM | TGI (UACC-62 melanoma): 66.2 µM | TGI (RPMI-8226 leukemia): 39.6 µM | TGI (HOP-92 NSCLC): 4.23 µM | TGI (OVCAR-5 ovarian): > 100 µM | TGI (KM12 colon): > 100 µM
